From the supplement of paper PMC10307832

How the values were obtained:
Experiment in all cases: relative viability (nuclei count vs DMSO), 5 days (fraction); higher = more cells survive
Doramapimod + Crizotinib = compound: Cc1ccc(-n2nc(C(C)(C)C)cc2NC(=O)Nc2ccc(OCCN3CCOCC3)c3ccccc23)cc1 [Doramapimod] + C[C@@H](Oc1cc(-c2cnn(C3CCNCC3)c2)cnc1N)c1c(Cl)ccc(F)c1Cl [Crizotinib] (partner 1 µM)
Procedure, shortened: (§1)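 After 5 days of treatment, lung cancer cells in 1536-well plates were fixed and stained in a single step (final 0.05% Triton X-100, 1% formaldehyde, 1 ug/ml Hoechst) and their nuclei counted on 4× images. Treatment had been applied by pin tool the day after seeding as one drug alone or as a fixed anchor-drug dose with five library-drug doses (not always all listed) in √10 steps. Relative viability is the nuclei count of treated wells divided by that of vehicle wells, and values are medians of duplicate plates.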

IPA-3 + Phenformin = compound: C1=CC=C2C(=C1)C=CC(=C2SSC3=C(C=CC4=CC=CC=C43)O)O [IPA-3] + N=C(N)NC(=N)NCCc1ccccc1 [Phenformin] (partner 250 µM)
Procedure, shortened: as §1

RAF265 + Bortezomib = compound: Cn1c(Nc2ccc(C(F)(F)F)cc2)nc2cc(Oc3ccnc(-c4ncc(C(F)(F)F)[nH]4)c3)ccc21 [RAF265] + CC(C)C[C@H](NC(=O)[C@H](Cc1ccccc1)NC(=O)c1cnccn1)B(O)O [Bortezomib] (partner 0.002 µM)
Procedure, shortened: as §1

IPA-3 + Palbociclib = compound: C1=CC=C2C(=C1)C=CC(=C2SSC3=C(C=CC4=CC=CC=C43)O)O [IPA-3] + CC(=O)c1c(C)c2cnc(Nc3ccc(N4CCNCC4)cn3)nc2n(C2CCCC2)c1=O [Palbociclib] (partner 0.5 µM)
Procedure, shortened: as §1

Cell Line: EKVX
- relative viability (Doramapimod + Crizotinib; first compound 0.02 µM): 0.986
- relative viability (Doramapimod + Crizotinib; first compound 0.06325 µM): 0.98
- relative viability (Doramapimod + Crizotinib; first compound 0.2 µM): 0.822
- relative viability (Doramapimod + Crizotinib; first compound 0.6325 µM): 0.951
- relative viability (Doramapimod + Crizotinib; first compound 2 µM): 0.918
- relative viability (IPA-3 + Phenformin; first compound 0.2 µM): 0.267
- relative viability (IPA-3 + Phenformin; first compound 0.6325 µM): 0.235
- relative viability (IPA-3 + Phenformin; first compound 2 µM): 0.238
- relative viability (IPA-3 + Phenformin; first compound 6.325 µM): 0.235
- relative viability (IPA-3 + Phenformin; first compound 20 µM): 0.266
- relative viability (RAF265 + Bortezomib; first compound 0.01 µM): 0.99
- relative viability (RAF265 + Bortezomib; first compound 0.03162 µM): 0.995
- relative viability (RAF265 + Bortezomib; first compound 0.1 µM): 1.04
- relative viability (RAF265 + Bortezomib; first compound 0.3162 µM): 0.513
- relative viability (RAF265 + Bortezomib; first compound 1 µM): 0.763
- relative viability (IPA-3 + Palbociclib; first compound 0.2 µM): 0.352
- relative viability (IPA-3 + Palbociclib; first compound 0.6325 µM): 0.418
- relative viability (IPA-3 + Palbociclib; first compound 2 µM): 0.34
- relative viability (IPA-3 + Palbociclib; first compound 6.325 µM): 0.456
- relative viability (IPA-3 + Palbociclib; first compound 20 µM): 0.409

Cell Line: ABC-1
- relative viability (Doramapimod + Crizotinib; first compound 0.02 µM): 1.03
- relative viability (Doramapimod + Crizotinib; first compound 0.06325 µM): 1.09
- relative viability (Doramapimod + Crizotinib; first compound 0.2 µM): 0.842
- relative viability (Doramapimod + Crizotinib; first compound 0.6325 µM): 0.75
- relative viability (Doramapimod + Crizotinib; first compound 2 µM): 1.29
- relative viability (IPA-3 + Phenformin; first compound 0.2 µM): 0.258
- relative viability (IPA-3 + Phenformin; first compound 0.6325 µM): 0.247
- relative viability (IPA-3 + Phenformin; first compound 2 µM): 0.236
- relative viability (IPA-3 + Phenformin; first compound 6.325 µM): 0.258
- relative viability (IPA-3 + Phenformin; first compound 20 µM): 0.235
- relative viability (RAF265 + Bortezomib; first compound 0.01 µM): 0.308
- relative viability (RAF265 + Bortezomib; first compound 0.03162 µM): 0.321
- relative viability (RAF265 + Bortezomib; first compound 0.1 µM): 0.278
- relative viability (RAF265 + Bortezomib; first compound 0.3162 µM): 0.284
- relative viability (RAF265 + Bortezomib; first compound 1 µM): 0.303
- relative viability (IPA-3 + Palbociclib; first compound 0.2 µM): 0.733
- relative viability (IPA-3 + Palbociclib; first compound 0.6325 µM): 0.81
- relative viability (IPA-3 + Palbociclib; first compound 2 µM): 0.392
- relative viability (IPA-3 + Palbociclib; first compound 6.325 µM): 0.748
- relative viability (IPA-3 + Palbociclib; first compound 20 µM): 0.851

Cell Line: NCI-H520
- relative viability (Doramapimod + Crizotinib; first compound 0.02 µM): 0.614
- relative viability (Doramapimod + Crizotinib; first compound 0.06325 µM): 0.767
- relative viability (Doramapimod + Crizotinib; first compound 0.2 µM): 0.709
- relative viability (Doramapimod + Crizotinib; first compound 0.6325 µM): 0.803
- relative viability (Doramapimod + Crizotinib; first compound 2 µM): 0.52
- relative viability (IPA-3 + Phenformin; first compound 0.2 µM): 0.817
- relative viability (IPA-3 + Phenformin; first compound 0.6325 µM): 0.63
- relative viability (IPA-3 + Phenformin; first compound 2 µM): 0.369
- relative viability (IPA-3 + Phenformin; first compound 6.325 µM): 0.512
- relative viability (IPA-3 + Phenformin; first compound 20 µM): 0.712
- relative viability (RAF265 + Bortezomib; first compound 0.01 µM): 0.389
- relative viability (RAF265 + Bortezomib; first compound 0.03162 µM): 0.547
- relative viability (RAF265 + Bortezomib; first compound 0.1 µM): 0.545
- relative viability (RAF265 + Bortezomib; first compound 0.3162 µM): 0.486
- relative viability (RAF265 + Bortezomib; first compound 1 µM): 0.202
- relative viability (IPA-3 + Palbociclib; first compound 0.2 µM): 0.229
- relative viability (IPA-3 + Palbociclib; first compound 0.6325 µM): 0.206
- relative viability (IPA-3 + Palbociclib; first compound 6.325 µM): 0.283
- relative viability (IPA-3 + Palbociclib; first compound 20 µM): 0.186

Cell Line: LCLC-97TM1
- relative viability (Doramapimod + Crizotinib; first compound 0.02 µM): 0.326
- relative viability (Doramapimod + Crizotinib; first compound 0.06325 µM): 0.357
- relative viability (Doramapimod + Crizotinib; first compound 0.2 µM): 0.31
- relative viability (Doramapimod + Crizotinib; first compound 0.6325 µM): 0.338
- relative viability (Doramapimod + Crizotinib; first compound 2 µM): 0.209
- relative viability (IPA-3 + Phenformin; first compound 0.2 µM): 0.449
- relative viability (IPA-3 + Phenformin; first compound 0.6325 µM): 0.447
- relative viability (IPA-3 + Phenformin; first compound 2 µM): 0.407
- relative viability (IPA-3 + Phenformin; first compound 6.325 µM): 0.315
- relative viability (IPA-3 + Phenformin; first compound 20 µM): 0.46
- relative viability (RAF265 + Bortezomib; first compound 0.01 µM): 0.253
- relative viability (RAF265 + Bortezomib; first compound 0.03162 µM): 0.671
- relative viability (RAF265 + Bortezomib; first compound 0.1 µM): 0.492
- relative viability (RAF265 + Bortezomib; first compound 0.3162 µM): 0.181
- relative viability (RAF265 + Bortezomib; first compound 1 µM): 0.238
- relative viability (IPA-3 + Palbociclib; first compound 0.2 µM): 0.23
- relative viability (IPA-3 + Palbociclib; first compound 0.6325 µM): 0.2
- relative viability (IPA-3 + Palbociclib; first compound 2 µM): 0.226
- relative viability (IPA-3 + Palbociclib; first compound 6.325 µM): 0.185
- relative viability (IPA-3 + Palbociclib; first compound 20 µM): 0.177

Cell Line: NCI-H3122
- relative viability (Doramapimod + Crizotinib; first compound 0.02 µM): 0.268
- relative viability (Doramapimod + Crizotinib; first compound 0.06325 µM): 0.267
- relative viability (Doramapimod + Crizotinib; first compound 0.2 µM): 0.223
- relative viability (Doramapimod + Crizotinib; first compound 0.6325 µM): 0.256
- relative viability (Doramapimod + Crizotinib; first compound 2 µM): 0.266
- relative viability (IPA-3 + Phenformin; first compound 0.2 µM): 0.442
- relative viability (IPA-3 + Phenformin; first compound 0.6325 µM): 0.38
- relative viability (IPA-3 + Phenformin; first compound 2 µM): 0.389
- relative viability (IPA-3 + Phenformin; first compound 6.325 µM): 0.31
- relative viability (IPA-3 + Phenformin; first compound 20 µM): 0.362
- relative viability (RAF265 + Bortezomib; first compound 0.01 µM): 0.955
- relative viability (RAF265 + Bortezomib; first compound 0.03162 µM): 1.02
- relative viability (RAF265 + Bortezomib; first compound 0.1 µM): 1.07
- relative viability (RAF265 + Bortezomib; first compound 0.3162 µM): 1.04
- relative viability (RAF265 + Bortezomib; first compound 1 µM): 0.922
- relative viability (IPA-3 + Palbociclib; first compound 0.2 µM): 0.185
- relative viability (IPA-3 + Palbociclib; first compound 0.6325 µM): 0.174
- relative viability (IPA-3 + Palbociclib; first compound 2 µM): 0.176
- relative viability (IPA-3 + Palbociclib; first compound 6.325 µM): 0.219
- relative viability (IPA-3 + Palbociclib; first compound 20 µM): 0.203

Cell Line: PC-14
- relative viability (Doramapimod + Crizotinib; first compound 0.02 µM): 0.896
- relative viability (Doramapimod + Crizotinib; first compound 0.06325 µM): 0.913
- relative viability (Doramapimod + Crizotinib; first compound 0.2 µM): 0.906
- relative viability (Doramapimod + Crizotinib; first compound 0.6325 µM): 0.855
- relative viability (Doramapimod + Crizotinib; first compound 2 µM): 0.853
- relative viability (IPA-3 + Phenformin; first compound 0.2 µM): 0.614
- relative viability (IPA-3 + Phenformin; first compound 0.6325 µM): 0.521
- relative viability (IPA-3 + Phenformin; first compound 2 µM): 0.572
- relative viability (IPA-3 + Phenformin; first compound 6.325 µM): 0.497
- relative viability (IPA-3 + Phenformin; first compound 20 µM): 0.801
- relative viability (RAF265 + Bortezomib; first compound 0.01 µM): 0.798
- relative viability (RAF265 + Bortezomib; first compound 0.03162 µM): 0.726
- relative viability (RAF265 + Bortezomib; first compound 0.1 µM): 0.886
- relative viability (RAF265 + Bortezomib; first compound 0.3162 µM): 0.953
- relative viability (RAF265 + Bortezomib; first compound 1 µM): 0.693
- relative viability (IPA-3 + Palbociclib; first compound 0.2 µM): 0.648
- relative viability (IPA-3 + Palbociclib; first compound 0.6325 µM): 0.324
- relative viability (IPA-3 + Palbociclib; first compound 2 µM): 0.512
- relative viability (IPA-3 + Palbociclib; first compound 6.325 µM): 0.446
- relative viability (IPA-3 + Palbociclib; first compound 20 µM): 0.352

Cell Line: EPLC-272H
- relative viability (Doramapimod + Crizotinib; first compound 0.02 µM): 0.942
- relative viability (Doramapimod + Crizotinib; first compound 0.06325 µM): 0.975
- relative viability (Doramapimod + Crizotinib; first compound 0.2 µM): 1.17
- relative viability (Doramapimod + Crizotinib; first compound 0.6325 µM): 0.974
- relative viability (Doramapimod + Crizotinib; first compound 2 µM): 0.972
- relative viability (IPA-3 + Phenformin; first compound 0.2 µM): 0.306
- relative viability (IPA-3 + Phenformin; first compound 0.6325 µM): 0.27
- relative viability (IPA-3 + Phenformin; first compound 2 µM): 0.346
- relative viability (IPA-3 + Phenformin; first compound 6.325 µM): 0.405
- relative viability (IPA-3 + Phenformin; first compound 20 µM): 0.397
- relative viability (RAF265 + Bortezomib; first compound 0.01 µM): 0.973
- relative viability (RAF265 + Bortezomib; first compound 0.03162 µM): 0.956
- relative viability (RAF265 + Bortezomib; first compound 0.1 µM): 0.818
- relative viability (RAF265 + Bortezomib; first compound 0.3162 µM): 0.808
- relative viability (RAF265 + Bortezomib; first compound 1 µM): 0.392
- relative viability (IPA-3 + Palbociclib; first compound 0.2 µM): 0.31
- relative viability (IPA-3 + Palbociclib; first compound 0.6325 µM): 0.38
- relative viability (IPA-3 + Palbociclib; first compound 2 µM): 0.316
- relative viability (IPA-3 + Palbociclib; first compound 6.325 µM): 0.304
- relative viability (IPA-3 + Palbociclib; first compound 20 µM): 0.327

Cell Line: A-427
- relative viability (Doramapimod + Crizotinib; first compound 0.02 µM): 0.927
- relative viability (Doramapimod + Crizotinib; first compound 0.06325 µM): 0.933
- relative viability (Doramapimod + Crizotinib; first compound 0.2 µM): 0.98
- relative viability (Doramapimod + Crizotinib; first compound 2 µM): 0.932
- relative viability (IPA-3 + Phenformin; first compound 0.2 µM): 0.395
- relative viability (IPA-3 + Phenformin; first compound 0.6325 µM): 0.295
- relative viability (IPA-3 + Phenformin; first compound 2 µM): 0.288
- relative viability (IPA-3 + Phenformin; first compound 6.325 µM): 0.253
- relative viability (IPA-3 + Phenformin; first compound 20 µM): 0.447
- relative viability (RAF265 + Bortezomib; first compound 0.01 µM): 0.98
- relative viability (RAF265 + Bortezomib; first compound 0.03162 µM): 0.867
- relative viability (RAF265 + Bortezomib; first compound 0.1 µM): 1
- relative viability (RAF265 + Bortezomib; first compound 0.3162 µM): 1.1
- relative viability (RAF265 + Bortezomib; first compound 1 µM): 0.494
- relative viability (IPA-3 + Palbociclib; first compound 0.2 µM): 0.531
- relative viability (IPA-3 + Palbociclib; first compound 0.6325 µM): 0.499
- relative viability (IPA-3 + Palbociclib; first compound 2 µM): 0.511
- relative viability (IPA-3 + Palbociclib; first compound 6.325 µM): 0.515
- relative viability (IPA-3 + Palbociclib; first compound 20 µM): 0.52
